In patent US20210069176A1, “Treating Autoimmune Disorders with Chloroquine and/or Hydroxychloroquine” (Attillaps Holdings, priority 2018, published 2021):

How the values were obtained:
Demodex mites = assay: in vitro Demodex survival time assay
Experimental: FIG. 4 summarizes the activity of 10% chloroquine in water relative to a water control on activity against Demodex mites in an in vitro assay, with an LT50 of 31.6 hours for chloroquine compared to 44.8 hours for the water control, illustrating the inactivation effect of chloroquine on Demodex.
Example 4: In vitro efficacy and mite lifetimes: Relative efficacy of various formulations are evaluated with a demodex survival time experiments. FIG. 3 tabulates demodex survival time, expressed in terms of LT50 (time at which 50% of demodex mites are killed) and/or average minutes to death for various active agents.

[1] = dichlorvos 1%, one patient; cited from earlier work

Structure (SMILES): CCN(CC)CCCC(C)Nc1ccnc2cc(Cl)ccc12 (stereo not drawn) [chloroquine]
- LT50 (time at which 50% of demodex mites are killed) (Demodex mites; 10% chloroquine in water, water control 44.8 hours, FIG. 4): 31.6 h
- activity against Demodex mites (Demodex mites; in vitro assay, FIG. 3): has activity against Demodex mites

Structure (SMILES): COP(=O)(OC)OC=C(Cl)Cl [dichlorvos]
- remission of Papulopostular Rosacea (PPR) [1]: complete and continued remission
